Laboratory results as given in patent US20060005464A1, “Alkyl ethanolamine and biocide combination for hydrocarbon based fuels” (priority 2004, published 2006).

What was measured:
Assay type in all cases: cell-based
[1] = test system: Pseudomonas Aeruginosa (ATCC27853); experiment: Microtiter plate growth of Pseudomonas Aeruginosa with amines and GROTAN; conditions: for growth of Pseudomonas Aeruginosa (Table 1 entry): pH 8.5, 24 hours
[2] = test system: Pseudomonas aeruginosa (ATCC 10145); experiment: Maximum growth slope of Pseudomonas aeruginosa with Proxel DB20 (BIT) plus alkanolamine; conditions: pH 8.5, TSB, 24 hour
Experimental: A culture of Pseudomonas aeruginosa (ATCC 10145) at pH=8.5 in TSB (trypticase soy broth) media was prepared. The biocide Proxel DB20 (20% suspension of benzoisothiazolone (BIT) in water), as sold by Avecia, was added at varying concentrations in combination with 1000 ppm or 2000 ppm of the alkanolamines N-butylaminoethanol (BAE), 2-amino-2-methyl-1-propanol (AMP), dibutylaminoethanol (DBAE) or n-octylaminoethanol (OAE). Optical density measurements were taken every 15 minutes over a 24 hour time period (total of 96 data points). The maximum growth slope was calculated by taking the 10 contiguous data points that result in the highest growth slope (units of OD per time) over a 24 hour period. Those 10 data points were subjected to a least squares linear fit to calculate the maximum growth slope.

[3] = test system: Mycobacterium smegmatis (ATCC # 19420); experiment: End-point optical density of Mycobacterium smegmatis with N-alkyl alkanolamines (590 nm, 72 h); conditions: for end-point optical density: 590 nm, after 72 hours, pH 8.5, tetrazolium dye
[4] = test system: Aureobasidium pullulans (ATCC 12536); experiment: End-point optical density of Aureobasidium pullulans with MIT/CMIT plus alkanolamine; conditions: SAB media pH 8.5
Experimental: The impact of N-alkylalkanolamines on the control of the bacterial species Aureobasidium pullulans (ATCC 12536), a bacteria common in water-oil systems, was evaluated by measuring optical absorbance of samples treated with various concentrations of N-alkyl alkanolamines. […] SAB media at pH 8.5 (Tris buffer) was employed. Table 8 summarizes measurement of end-point optical density after 24 hours and 48 hours: […]

[5] = test system: Mycobacterium smegmatis (ATCC # 19420); experiment: End-point optical density and MIC, Mycobacterium smegmatis (660 nm, 48 h); conditions: for MIC (estimate of the concentration range in which the amine starts to inhibit growth): 48 hours; for end-point optical density: 660 nm, after 48 hours
Experimental: (§1) The impact of N-alkylalkanolamines on the control of the bacterial species Mycobacterium smegmatis (ATCC # 19420), a bacteria common in water-oil systems, was evaluated by measuring optical absorbance of samples treated with various alkyl ethanolaminesis DCHA=Dicyclohexylamine, OAE=Octylaminoethanol, ODEA=Octyldiethanolamine. Bacterial concentration was monitored indirectly via optical absorbance at 660 nm. The values reported are end-point optical densities in milliOD units after 48 hours. The media consisted of a standardized solution of clear nutrient broth (Middlebrook 7H10 with OADC supplement), amine, buffer (Tris) and water. The pH was adjusted initially to 8.5 with Tris buffer. The first column in the Table gives the amine concentration in ppm. The final two columns give data for cells that also contained 2 grams per liter of boric acid. In all cases, the values are averages of at least three replicates. The final row of the Table gives an estimate of the concentration range in which the amine in question starts to inhibit the growth of this bacterial species.

[6] = test system: Mycobacterium marinum (ATCC # 19420); experiment: End-point optical density and MIC, Mycobacterium marinum (660 nm, 72 h); conditions: pH 8.5; for MIC (estimate of the concentration range in which the amine starts to inhibit growth): 72 hours; for end-point optical density: 660 nm, after 72 hours
Experimental: as §1
The impact of the N-alkylalkanolamines of Example 6 on the control of the bacterial species Mycobacterium marinum (ATCC # 19420), bacteria common in water-oil systems, was evaluated as described above in Example 6. Bacterial concentration in the experimental media was monitored indirectly via optical absorbance at 660 nm. The values reported are end-point optical densities in milliOD units after 72 hours. The media consisted of a standardized solution of clear nutrient broth (Middlebrook 7H10 with OADC supplement), amine, buffer (Tris) and water. The pH was adjusted initially to 8.5 with Tris buffer. The first column in the Table gives the amine concentration in ppm. In all cases, the values are averages of at least three replicates. The final row of the Table gives an estimate of the concentration range in which the amine in question starts to inhibit the growth of this bacterial species.

[7] = amine 2000 ppm plus GROTAN 100 ppm
[8] = amine 2000 ppm plus GROTAN 250 ppm
[9] = amine 2000 ppm plus GROTAN 500 ppm
[10] = amine 2000 ppm plus GROTAN 1000 ppm
[11] = amine 2000 ppm plus GROTAN 2000 ppm
[12] = amine 4000 ppm plus GROTAN 100 ppm
[13] = amine 4000 ppm plus GROTAN 250 ppm
[14] = amine 4000 ppm plus GROTAN 500 ppm
[15] = amine 4000 ppm plus GROTAN 1000 ppm
[16] = amine 4000 ppm plus GROTAN 2000 ppm
[17] = amine 1000 ppm plus BIT 150 ppm
[18] = amine 1000 ppm plus BIT 250 ppm
[19] = amine 1000 ppm plus BIT 500 ppm
[20] = amine 2000 ppm plus BIT 150 ppm
[21] = amine 2000 ppm plus BIT 250 ppm
[22] = amine 2000 ppm plus BIT 500 ppm
[23] = amine 500 ppm plus 2 grams per liter of boric acid
[24] = amine 1000 ppm plus 2 grams per liter of boric acid
[25] = amine 2000 ppm plus 2 grams per liter of boric acid
[26] = with 2 grams per liter of boric acid

`CCCCN(CCO)CCO` [BDEA, butyldiethanolamine] was tested, and the “growth of Pseudomonas Aeruginosa (Table 1 entry)” value (“growth of Pseudomonas Aeruginosa” for short) [1, 7] was 0.52, the “growth of Pseudomonas Aeruginosa” value [1, 8] was 0.72 and the “growth of Pseudomonas Aeruginosa” value [1, 9] was 0.79. The “growth of Pseudomonas Aeruginosa” value [1, 10] was 0.32, the “growth of Pseudomonas Aeruginosa” value [1, 11] was 0.33 and the “growth of Pseudomonas Aeruginosa” value ([1]; amine 2000 ppm, GROTAN 0 ppm) was 0.67. For the same compound, the “growth of Pseudomonas Aeruginosa” value [1, 12] was 0.67, the “growth of Pseudomonas Aeruginosa” value [1, 13] was 0.51 and the “growth of Pseudomonas Aeruginosa” value [1, 14] was 0.30. For the same compound, the “growth of Pseudomonas Aeruginosa” value [1, 15] was 0.28, the “growth of Pseudomonas Aeruginosa” value [1, 16] was 0.33 and the “growth of Pseudomonas Aeruginosa” value ([1]; amine 4000 ppm, GROTAN 0 ppm) was 0.45. For the same compound, the “enhancement in the biocidal effect of GROTAN” value ([1]; conclusion from Table 1) was “provide an enhancement in the biocidal effect of GROTAN®”.

`CCCCN(CCO)CCCC` [DBAE, dibutylaminoethanol] gave a maximum growth slope [2, 17] of 0.221 OD per time, a maximum growth slope [2, 18] of 0.255 OD per time and a maximum growth slope [2, 19] of 0.143 OD per time. For the same compound, the maximum growth slope ([2]; amine 1000 ppm, BIT 0 ppm) was 0.228 OD per time, the maximum growth slope [2, 20] was 0.084 OD per time and the maximum growth slope [2, 21] was 0.104 OD per time. The maximum growth slope [2, 22] was 0.000 OD per time, the maximum growth slope ([2]; amine 2000 ppm, BIT 0 ppm) was 0.114 OD per time and the end-point optical density ([3]; amine 470 ppm) was 2000 milliOD. It also gave an end-point optical density ([3]; amine 940 ppm) of 2000 milliOD, an end-point optical density ([3]; amine 1880 ppm) of 2000 milliOD and an end-point optical density ([3]; amine 3750 ppm) of 1900 milliOD. It also gave an end-point optical density ([3]; amine 7500 ppm) of 1200 milliOD, an end-point optical density ([4]; amine 1000 ppm plus 50 ppm MIT/CMIT, 24 hours) of 0.3 and an end-point optical density ([4]; amine 1000 ppm plus 50 ppm MIT/CMIT, 48 hours) of 0.4. It also gave an end-point optical density ([4]; amine 2000 ppm plus 50 ppm MIT/CMIT, 24 hours) of 0.2 and an end-point optical density ([4]; amine 2000 ppm plus 50 ppm MIT/CMIT, 48 hours) of 0.2.

For `C1CCC(NC2CCCCC2)CC1` [DCHA, Dicyclohexylamine, reference compound], the “MIC (estimate of the concentration range in which the amine starts to inhibit growth)” value ([5]; pH 8.5, no boric acid) was 1500-2000 ppm, the end-point optical density [5, 23] was 1.125 milliOD and the end-point optical density ([5]; amine 500 ppm, pH 8.5) was 1.02 milliOD. For the same compound, the end-point optical density [5, 24] was 0.855 milliOD, the end-point optical density ([5]; amine 1000 ppm, pH 8.5) was 0.802 milliOD and the end-point optical density ([5]; amine 1500 ppm, pH 8.5) was 0.995 milliOD. For the same compound, the end-point optical density [5, 25] was 0.085 milliOD, the end-point optical density ([5]; amine 2000 ppm, pH 8.5) was 0.268 milliOD and the “MIC (estimate of the concentration range in which the amine starts to inhibit growth)” value [5, 26] was 1000-2000 ppm. The “MIC (estimate of the concentration range in which the amine starts to inhibit growth)” value [6] was over 4000 ppm, the end-point optical density ([6]; amine 400 ppm) was 0.6 milliOD and the end-point optical density ([6]; amine 800 ppm) was 0.6 milliOD. The end-point optical density ([6]; amine 1200 ppm) was 0.5 milliOD, the end-point optical density ([6]; amine 2000 ppm) was 0.4 milliOD and the end-point optical density ([6]; amine 4000 ppm) was 0.4 milliOD.

In the case of `CCCCCCCCNCCO` [OAE, n-octylaminoethanol], the maximum growth slope [2, 17] was 0.000 OD per time, the maximum growth slope [2, 18] was 0.000 OD per time and the maximum growth slope [2, 19] was 0.000 OD per time. The maximum growth slope ([2]; amine 1000 ppm, BIT 0 ppm) was 0.000 OD per time, the maximum growth slope [2, 20] was 0.000 OD per time and the maximum growth slope [2, 21] was 0.000 OD per time. For the same compound, the maximum growth slope [2, 22] was 0.000 OD per time, the maximum growth slope ([2]; amine 2000 ppm, BIT 0 ppm) was 0.000 OD per time and the end-point optical density ([3]; amine 470 ppm) was 0 milliOD. For the same compound, the end-point optical density ([3]; amine 940 ppm) was 0 milliOD, the end-point optical density ([3]; amine 1880 ppm) was 0 milliOD and the end-point optical density ([3]; amine 3750 ppm) was 0 milliOD. For the same compound, the end-point optical density ([3]; amine 7500 ppm) was 0 milliOD, the “effectiveness against Mycobacteria” value ([3]; compared with AMP, conclusion from Table 5) was “markedly more effective than AMP” and the “MIC (estimate of the concentration range in which the amine starts to inhibit growth)” value ([5]; pH 8.5, no boric acid) was under 500 ppm. It also gave an end-point optical density [5, 23] of 0.100 milliOD, an end-point optical density ([5]; amine 500 ppm, pH 8.5) of 0.184 milliOD and an end-point optical density [5, 24] of 0.121 milliOD. For the same compound, the end-point optical density ([5]; amine 1000 ppm, pH 8.5) was 0.149 milliOD, the end-point optical density ([5]; amine 1500 ppm, pH 8.5) was 0.213 milliOD and the end-point optical density [5, 25] was 0.015 milliOD. The end-point optical density ([5]; amine 2000 ppm, pH 8.5) was 0.226 milliOD, the end-point optical density ([5]; amine 4000 ppm, pH 8.5) was 0.205 milliOD and the “MIC (estimate of the concentration range in which the amine starts to inhibit growth)” value [5, 26] was under 500 ppm. For the same compound, the “MIC (estimate of the concentration range in which the amine starts to inhibit growth)” value [6] was 1200-2000 ppm, the end-point optical density ([6]; amine 400 ppm) was 0.4 milliOD and the end-point optical density ([6]; amine 800 ppm) was 0.4 milliOD. The end-point optical density ([6]; amine 1200 ppm) was 0.4 milliOD, the end-point optical density ([6]; amine 2000 ppm) was 0 milliOD and the end-point optical density ([6]; amine 4000 ppm) was 0 milliOD. For the same compound, the end-point optical density ([4]; amine 200 ppm plus 50 ppm MIT/CMIT, 24 hours) was 0.1, the end-point optical density ([4]; amine 200 ppm plus 50 ppm MIT/CMIT, 48 hours) was 0.1 and the end-point optical density ([4]; amine 500 ppm plus 50 ppm MIT/CMIT, 24 hours) was 0. For the same compound, the end-point optical density ([4]; amine 500 ppm plus 50 ppm MIT/CMIT, 48 hours) was 0.

`CCCCCCCCN(CCO)CCO` [ODEA, Octyldiethanolamine] was tested, and the “MIC (estimate of the concentration range in which the amine starts to inhibit growth)” value ([5]; pH 8.5, no boric acid) was 500-1000 ppm, the end-point optical density ([5]; amine 500 ppm, pH 8.5) was 0.847 milliOD and the end-point optical density ([5]; amine 1000 ppm, pH 8.5) was 0.117 milliOD. The end-point optical density ([5]; amine 1500 ppm, pH 8.5) was 0.260 milliOD, the end-point optical density ([5]; amine 2000 ppm, pH 8.5) was 0.225 milliOD and the “MIC (estimate of the concentration range in which the amine starts to inhibit growth)” value [6] was 1200-2000 ppm. For the same compound, the end-point optical density ([6]; amine 400 ppm) was 0.6 milliOD, the end-point optical density ([6]; amine 800 ppm) was 0.4 milliOD and the end-point optical density ([6]; amine 1200 ppm) was 0.4 milliOD. For the same compound, the end-point optical density ([6]; amine 2000 ppm) was 0.1 milliOD and the end-point optical density ([6]; amine 4000 ppm) was 0 milliOD.

In the case of `CC(C)(C)NCCO` [TBAE, tert-butylaminoethanol], the “growth of Pseudomonas Aeruginosa” value [1, 7] was 0.72, the “growth of Pseudomonas Aeruginosa” value [1, 8] was 0.69 and the “growth of Pseudomonas Aeruginosa” value [1, 9] was 0.83. The “growth of Pseudomonas Aeruginosa” value [1, 10] was 0.30, the “growth of Pseudomonas Aeruginosa” value [1, 11] was 0.35 and the “growth of Pseudomonas Aeruginosa” value ([1]; amine 2000 ppm, GROTAN 0 ppm) was 0.67. The “growth of Pseudomonas Aeruginosa” value [1, 12] was 0.58, the “growth of Pseudomonas Aeruginosa” value [1, 13] was 0.59 and the “growth of Pseudomonas Aeruginosa” value [1, 14] was 0.34. For the same compound, the “growth of Pseudomonas Aeruginosa” value [1, 15] was 0.28, the “growth of Pseudomonas Aeruginosa” value [1, 16] was 0.36 and the “growth of Pseudomonas Aeruginosa” value ([1]; amine 4000 ppm, GROTAN 0 ppm) was 0.55.
